Measured values reported in article PMC5488202.

Experiment: Ring-closing metathesis (C=C formation) of fluorous-tagged (FDIPES) terminal dienes with Hoveyda-Grubbs 2nd generation catalyst (typically 2 mol%, 1-5 mol%), usually with 1,4-benzoquinone (4-10 mol%); quench P(CH2OH)3/Et3N/silica
Details: MTBE, 2.0 mM, 55.0 °C

COc1ccc([C@H]2COCC=CC[C@H](CO[Si](CCC(F)(F)C(F)(F)C(F)(F)C(F)(F)C(F)(F)C(F)(F)C(F)(F)C(F)(F)F)(C(C)C)C(C)C)N(S(=O)(=O)c3ccccc3[N+](=O)[O-])Cc3ccccc3CN(S(=O)(=O)c3ccccc3[N+](=O)[O-])C(=O)OC2)c(OC)c1 [24 (13+9; 2 steps RCM + denosylation; E/Z 60:40)]
ring closure, isolated yield (from C=CCOC[C@@H](COC(=O)N(Cc1ccccc1CN([C@H](CC=C)CO[Si](CCC(F)(F)C(F)(F)C(F)(F)C(F)(F)C(F)(F)C(F)(F)C(F)(F)C(F)(F)F)(C(C)C)C(C)C)S(=O)(=O)c1ccccc1[N+](=O)[O-])S(=O)(=O)c1ccccc1[N+](=O)[O-])c1ccc(OC)cc1OC, 17-membered ring, 24.0 h): 33%

CC(C)[Si](CCC(F)(F)C(F)(F)C(F)(F)C(F)(F)C(F)(F)C(F)(F)C(F)(F)C(F)(F)F)(OC[C@H]1CC=CCC[C@@H](O[Si](C)(C)C(C)(C)C)[C@H](C)C(=O)N(S(=O)(=O)c2ccccc2[N+](=O)[O-])CC2=CC=C(CN1S(=O)(=O)c1ccccc1[N+](=O)[O-])S2)C(C)C [3 (from 2; E/Z 65:35)]
ring closure, isolated yield (from C=CCC[C@@H](O[Si](C)(C)C(C)(C)C)[C@H](C)C(=O)N(Cc1ccc(CN([C@H](CC=C)CO[Si](CCC(F)(F)C(F)(F)C(F)(F)C(F)(F)C(F)(F)C(F)(F)C(F)(F)C(F)(F)F)(C(C)C)C(C)C)S(=O)(=O)c2ccccc2[N+](=O)[O-])s1)S(=O)(=O)c1ccccc1[N+](=O)[O-], 16-membered ring, 16.0 h): 40%

COc1ccc([C@H]2COCC=CC[C@H](CO[Si](CCC(F)(F)C(F)(F)C(F)(F)C(F)(F)C(F)(F)C(F)(F)C(F)(F)C(F)(F)F)(C(C)C)C(C)C)N(S(=O)(=O)c3ccccc3[N+](=O)[O-])Cc3cccc(c3)CN(S(=O)(=O)c3ccccc3[N+](=O)[O-])C(=O)OC2)c(OC)c1 [27 (14+9; E/Z 60:40)]
ring closure, isolated yield (from C=CCOC[C@@H](COC(=O)N(Cc1cccc(CN([C@H](CC=C)CO[Si](CCC(F)(F)C(F)(F)C(F)(F)C(F)(F)C(F)(F)C(F)(F)C(F)(F)C(F)(F)F)(C(C)C)C(C)C)S(=O)(=O)c2ccccc2[N+](=O)[O-])c1)S(=O)(=O)c1ccccc1[N+](=O)[O-])c1ccc(OC)cc1OC, 18-membered ring, 24.0 h): 56%

CC(C)[Si](CCC(F)(F)C(F)(F)C(F)(F)C(F)(F)C(F)(F)C(F)(F)C(F)(F)C(F)(F)F)(OC[C@@H]1COCC=CCCN(S(=O)(=O)C(F)(F)F)Cc2ccccc2CN1S(=O)(=O)c1ccccc1[N+](=O)[O-])C(C)C [35 (16+12; E/Z 70:30)]
ring closure, isolated yield (from C=CCCN(Cc1ccccc1CN([C@@H](COCC=C)CO[Si](CCC(F)(F)C(F)(F)C(F)(F)C(F)(F)C(F)(F)C(F)(F)C(F)(F)C(F)(F)F)(C(C)C)C(C)C)S(=O)(=O)c1ccccc1[N+](=O)[O-])S(=O)(=O)C(F)(F)F, 14-membered ring, 36.0 h): 98%

COc1ccc([C@H]2COCC=CCOC[C@@H](CO[Si](CCC(F)(F)C(F)(F)C(F)(F)C(F)(F)C(F)(F)C(F)(F)C(F)(F)C(F)(F)F)(C(C)C)C(C)C)N(S(=O)(=O)c3ccccc3[N+](=O)[O-])Cc3ccccc3CN(S(=O)(=O)c3ccccc3[N+](=O)[O-])C(=O)OC2)c(OC)c1 [32 (16+9; E/Z >98:<2)]
ring closure, isolated yield (from C=CCOC[C@@H](COC(=O)N(Cc1ccccc1CN([C@@H](COCC=C)CO[Si](CCC(F)(F)C(F)(F)C(F)(F)C(F)(F)C(F)(F)C(F)(F)C(F)(F)C(F)(F)F)(C(C)C)C(C)C)S(=O)(=O)c1ccccc1[N+](=O)[O-])S(=O)(=O)c1ccccc1[N+](=O)[O-])c1ccc(OC)cc1OC, 19-membered ring, 36.0 h): 88%

CC(C)[Si](CCC(F)(F)C(F)(F)C(F)(F)C(F)(F)C(F)(F)C(F)(F)C(F)(F)C(F)(F)F)(OC[C@H]1CC=CCOc2ccccc2COC(=O)N(S(=O)(=O)c2ccccc2[N+](=O)[O-])CC2=CC=C(CN1S(=O)(=O)c1ccccc1[N+](=O)[O-])S2)C(C)C [31 (15+10; E/Z >98:<2)]
ring closure, isolated yield (from C=CCOc1ccccc1COC(=O)N(Cc1ccc(CN([C@H](CC=C)CO[Si](CCC(F)(F)C(F)(F)C(F)(F)C(F)(F)C(F)(F)C(F)(F)C(F)(F)C(F)(F)F)(C(C)C)C(C)C)S(=O)(=O)c2ccccc2[N+](=O)[O-])s1)S(=O)(=O)c1ccccc1[N+](=O)[O-], 18-membered ring, 16.0 h): 60%

CC(C)[Si](CCC(F)(F)C(F)(F)C(F)(F)C(F)(F)C(F)(F)C(F)(F)C(F)(F)C(F)(F)F)(OC[C@H]1CC=CCOc2ccccc2COC(=O)N(S(=O)(=O)c2ccccc2[N+](=O)[O-])Cc2ccccc2CN1S(=O)(=O)c1ccccc1[N+](=O)[O-])C(C)C [25 (13+10; E/Z 65:35)]
ring closure, isolated yield (from C=CCOc1ccccc1COC(=O)N(Cc1ccccc1CN([C@H](CC=C)CO[Si](CCC(F)(F)C(F)(F)C(F)(F)C(F)(F)C(F)(F)C(F)(F)C(F)(F)C(F)(F)F)(C(C)C)C(C)C)S(=O)(=O)c1ccccc1[N+](=O)[O-])S(=O)(=O)c1ccccc1[N+](=O)[O-], 17-membered ring, 24.0 h): 56%

CC(C)[Si](CCC(F)(F)C(F)(F)C(F)(F)C(F)(F)C(F)(F)C(F)(F)C(F)(F)C(F)(F)F)(OC[C@@H]1COCC=CCOc2ccccc2COC(=O)N(S(=O)(=O)c2ccccc2[N+](=O)[O-])Cc2ccccc2CN1S(=O)(=O)c1ccccc1[N+](=O)[O-])C(C)C [33 (16+10; E/Z >98:<2)]
ring closure, isolated yield (from C=CCOC[C@@H](CO[Si](CCC(F)(F)C(F)(F)C(F)(F)C(F)(F)C(F)(F)C(F)(F)C(F)(F)C(F)(F)F)(C(C)C)C(C)C)N(Cc1ccccc1CN(C(=O)OCc1ccccc1OCC=C)S(=O)(=O)c1ccccc1[N+](=O)[O-])S(=O)(=O)c1ccccc1[N+](=O)[O-], 19-membered ring, 48.0 h): 75%

CC(C)[Si](CCC(F)(F)C(F)(F)C(F)(F)C(F)(F)C(F)(F)C(F)(F)C(F)(F)C(F)(F)F)(OC[C@H]1COCC=CCOc2ccccc2COC(=O)N(S(=O)(=O)c2ccccc2[N+](=O)[O-])Cc2cccc(c2)CN1S(=O)(=O)c1ccccc1[N+](=O)[O-])C(C)C [37 (17+10; E/Z 70:30)]
ring closure, isolated yield (from C=CCOC[C@H](CO[Si](CCC(F)(F)C(F)(F)C(F)(F)C(F)(F)C(F)(F)C(F)(F)C(F)(F)C(F)(F)F)(C(C)C)C(C)C)N(Cc1cccc(CN(C(=O)OCc2ccccc2OCC=C)S(=O)(=O)c2ccccc2[N+](=O)[O-])c1)S(=O)(=O)c1ccccc1[N+](=O)[O-], 20-membered ring, 60.0 h): 78%

CC(C)[Si](CCC(F)(F)C(F)(F)C(F)(F)C(F)(F)C(F)(F)C(F)(F)C(F)(F)C(F)(F)F)(OC[C@H]1CC=CCC[C@@H](O[Si](C)(C)C(C)(C)C)[C@H](C)CN(S(=O)(=O)C(F)(F)F)Cc2ccccc2CN1S(=O)(=O)c1ccccc1[N+](=O)[O-])C(C)C [23 (13+11, from 22; 2 steps RCM + denosylation; E/Z 30:70)]
ring closure, isolated yield (from C=CCC[C@@H](O[Si](C)(C)C(C)(C)C)[C@H](C)CN(Cc1ccccc1CN([C@H](CC=C)CO[Si](CCC(F)(F)C(F)(F)C(F)(F)C(F)(F)C(F)(F)C(F)(F)C(F)(F)C(F)(F)F)(C(C)C)C(C)C)S(=O)(=O)c1ccccc1[N+](=O)[O-])S(=O)(=O)C(F)(F)F, 15-membered ring): 84%

CC(C)[Si](CCC(F)(F)C(F)(F)C(F)(F)C(F)(F)C(F)(F)C(F)(F)C(F)(F)C(F)(F)F)(OC[C@H]1CC=CCC[C@@H](O[Si](C)(C)C(C)(C)C)[C@H](C)CN(S(=O)(=O)C(F)(F)F)Cc2cccc(c2)CN1S(=O)(=O)c1ccccc1[N+](=O)[O-])C(C)C [29 (14+11; E/Z 15:85)]
ring closure, isolated yield (from C=CCC[C@@H](O[Si](C)(C)C(C)(C)C)[C@H](C)CN(Cc1cccc(CN([C@H](CC=C)CO[Si](CCC(F)(F)C(F)(F)C(F)(F)C(F)(F)C(F)(F)C(F)(F)C(F)(F)C(F)(F)F)(C(C)C)C(C)C)S(=O)(=O)c2ccccc2[N+](=O)[O-])c1)S(=O)(=O)C(F)(F)F, 16-membered ring, 4.0 h): 78%

CC(C)[Si](CCC(F)(F)C(F)(F)C(F)(F)C(F)(F)C(F)(F)C(F)(F)C(F)(F)C(F)(F)F)(OC[C@H]1CC=CCCN(S(=O)(=O)C(F)(F)F)Cc2ccccc2CN1S(=O)(=O)c1ccccc1[N+](=O)[O-])C(C)C [26 (13+12; E/Z >98:<2)]
ring closure, isolated yield (from C=CCCN(Cc1ccccc1CN([C@H](CC=C)CO[Si](CCC(F)(F)C(F)(F)C(F)(F)C(F)(F)C(F)(F)C(F)(F)C(F)(F)C(F)(F)F)(C(C)C)C(C)C)S(=O)(=O)c1ccccc1[N+](=O)[O-])S(=O)(=O)C(F)(F)F, 12-membered ring, 6.0 h): 76%

CC(C)[Si](CCC(F)(F)C(F)(F)C(F)(F)C(F)(F)C(F)(F)C(F)(F)C(F)(F)C(F)(F)F)(OC[C@H]1COCC=CCC[C@@H](O[Si](C)(C)C(C)(C)C)[C@H](C)C(=O)N(S(=O)(=O)c2ccccc2[N+](=O)[O-])Cc2cccc(c2)CN1S(=O)(=O)c1ccccc1[N+](=O)[O-])C(C)C [19 (from 18; Z 50% + E 40%)]
ring closure, isolated yield (from C=CCC[C@@H](O[Si](C)(C)C(C)(C)C)[C@H](C)C(=O)N(Cc1cccc(CN([C@H](COCC=C)CO[Si](CCC(F)(F)C(F)(F)C(F)(F)C(F)(F)C(F)(F)C(F)(F)C(F)(F)C(F)(F)F)(C(C)C)C(C)C)S(=O)(=O)c2ccccc2[N+](=O)[O-])c1)S(=O)(=O)c1ccccc1[N+](=O)[O-], 18-membered ring, 48.0 h): 90%

CC(C)[Si](CCC(F)(F)C(F)(F)C(F)(F)C(F)(F)C(F)(F)C(F)(F)C(F)(F)C(F)(F)F)(OC[C@H]1CC=CCCN(S(=O)(=O)C(F)(F)F)Cc2cccc(c2)CN1S(=O)(=O)c1ccccc1[N+](=O)[O-])C(C)C (mixture of isomers) [30 (14+12; E/Z mixture)]
ring closure, isolated yield (from C=CCCN(Cc1cccc(CN([C@H](CC=C)CO[Si](CCC(F)(F)C(F)(F)C(F)(F)C(F)(F)C(F)(F)C(F)(F)C(F)(F)C(F)(F)F)(C(C)C)C(C)C)S(=O)(=O)c2ccccc2[N+](=O)[O-])c1)S(=O)(=O)C(F)(F)F, 13-membered ring, 16.0 h): 47%
